The record followed here is US20060135393A1, “Mild cleansing composition” (KPSS-Kao Professional Salon Services GmbH, priority 2004, published 2006).

This data set concerns male and female volunteers backs. Nature of the data set: Occlusive multiple patch test for skin irritation potential (Hayes Chamber). The class given is in vivo, human. The note with it: shampoos diluted to 10% by weight in tap water; 25 μl per chamber; 3 applications, 72 hours total skin contact; visual scoring by dermatologist, 0 (no apparent cutaneous involvement) to 4 (severe erythema with edema). Here is the method: The above composition and the comparative compositions (see below) were tested for their skin irritation potential in an occlusive patch test using male and female volunteers backs aging 45+−14 years using Hayes Chamber with 25 μl volume. In detail, the shampoo compositions to be tested were diluted to a shampoo concentration of 10% by weight in tap water and homogeneously mixed. Using a laboratory calibrated pipette 25 μl of the solutions were filled into the chambers and the samples were patched onto the backs of the volunteers. The application was repeated 3 times (the duration of skin contact in total is 72 hours). After removal of the last patch (after 72 hrs), the application areas were evaluated visually by a dermatologist. The evaluation scores were as follows: [table] Such kind of tests are offered by several dermatological institutes or dermatologists having private clinics and the tests of the present invention were as well carried out in a dermatological institutes in Germany.

Consider `CCCCCCCCCCCCOS(=O)(=O)[O-].[Na+]` [1% SDS* solution, sodium dodecyl sulfate], for which the Irritation score is recorded as 1.99.
